“And” between values parts separate entries of the source, which are not always exact repeats. Equal entries are not always repeated. Inconclusive results and toxic doses are left out. No stated cut-off is given here; in the data, active means T/C of 150% or more; inactive means T/C below 125%.
Test system: L1210 leukemia ip in BDF1 mice, survival T/C
Assay: NCI In Vivo Anticancer Drug Screen. Data for tumor model L1210 Leukemia (intraperitoneal) in B6D2F1 (BDF1) mice
Details: endpoint: mean survival time, higher = longer survival
How it was run: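 Ratio derived from survival: compound-dosed mice over vehicle-dosed mice, all bearing a transplantable tumor.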

[1] = dose: 100.0 mg/kg/injection, schedule: Q04DX003 (ip), vehicle: saline
[2] = dose: 200.0 mg/kg/injection, schedule: Q04DX003 (ip), vehicle: saline
[3] = dose: 400.0 mg/kg/injection, schedule: Q04DX003 (ip), vehicle: saline
[4] = dose: 100.0 mg/kg/injection, schedule: Q04DX002 (ip), vehicle: saline with Tween-80
[5] = dose: 200.0 mg/kg/injection, schedule: Q04DX002 (ip), vehicle: saline with Tween-80
[6] = dose: 400.0 mg/kg/injection, schedule: Q04DX002 (ip), vehicle: saline with Tween-80
[7] = dose: 100.0 mg/kg/injection, schedule: Q01DX001 (ip), vehicle: saline
[8] = dose: 200.0 mg/kg/injection, schedule: Q01DX001 (ip), vehicle: saline
[9] = dose: 100.0 mg/kg/injection, schedule: Q01DX009 (ip), vehicle: Klucel (hydroxypropylcellulose) (HPC)
[10] = dose: 200.0 mg/kg/injection, schedule: Q01DX009 (ip), vehicle: Klucel (hydroxypropylcellulose) (HPC)
[11] = dose: 100.0 mg/kg/injection, schedule: Q04DX002 (ip), vehicle: Klucel (hydroxypropylcellulose) (HPC)
[12] = dose: 400.0 mg/kg/injection, schedule: Q04DX002 (ip), vehicle: Klucel (hydroxypropylcellulose) (HPC)
[13] = dose: 100.0 mg/kg/injection, schedule: Q01DX009 (ip), vehicle: saline with Tween-80
[14] = dose: 200.0 mg/kg/injection, schedule: Q01DX009 (ip), vehicle: saline with Tween-80
[15] = dose: 200.0 mg/kg/injection, schedule: Q04DX002 (ip), vehicle: Klucel (hydroxypropylcellulose) (HPC)

Measured: T/C

Cc1c(CC[n+]2cccc(C(N)=O)c2)[nH]c(=O)[nH]c1=O
inactive: [1] 97 % of control | [2] 101 % of control | [3] 97 % of control

CCCCCCCC(=O)Nc1cccc(OC(=O)NC)c1
inactive: dose: 100.0 mg/kg/injection, schedule: Q04DX003 (ip), vehicle: saline with Tween-80 98 % of control | dose: 200.0 mg/kg/injection, schedule: Q04DX003 (ip), vehicle: saline with Tween-80 94 % of control | dose: 400.0 mg/kg/injection, schedule: Q04DX003 (ip), vehicle: saline with Tween-80 96 % of control

CNC(=O)OC(C)(C)C#N
inactive: [4] 101 % of control | [5] 101 % of control | [6] 106 % of control

O=C1C(N2CCOCC2)=C(N2CC2)C(=O)C(N2CCOCC2)=C1N1CC1
inactive: dose: 0.19 mg/kg/injection, schedule: Q04DX003 (ip), vehicle: saline 92 % of control and 102 % of control | dose: 0.37 mg/kg/injection, schedule: Q04DX003 (ip), vehicle: saline 94 % of control and 107 % of control | dose: 0.75 mg/kg/injection, schedule: Q01DX009 (ip), vehicle: saline 105 % of control and 118 % of control | dose: 0.75 mg/kg/injection, schedule: Q04DX003 (ip), vehicle: saline 107 % of control and 113 % of control | dose: 1.5 mg/kg/injection, schedule: Q01DX009 (ip), vehicle: saline 120 % of control | dose: 1.5 mg/kg/injection, schedule: Q04DX003 (ip), vehicle: saline 105 % of control | dose: 3.0 mg/kg/injection, schedule: Q04DX003 (ip), vehicle: saline 122 % of control | dose: 3.12 mg/kg/injection, schedule: Q01DX001 (ip), vehicle: saline 86 % of control | dose: 12.0 mg/kg/injection, schedule: Q04DX003 (ip), vehicle: saline 115 % of control

O=C(C#CC(=O)[O][Sn]([c]1ccccc1)([c]1ccccc1)[c]1ccccc1)[O][Sn]([c]1ccccc1)([c]1ccccc1)[c]1ccccc1
inactive: dose: 6.25 mg/kg/injection, schedule: Q01DX001 (ip), vehicle: saline 90 % of control | dose: 12.5 mg/kg/injection, schedule: Q01DX001 (ip), vehicle: saline 95 % of control | dose: 25.0 mg/kg/injection, schedule: Q01DX001 (ip), vehicle: saline 100 % of control | dose: 35.0 mg/kg/injection, schedule: Q01DX001 (ip), vehicle: Klucel (hydroxypropylcellulose) (HPC) 91 % of control

CCOC(=O)C1C2CCCCC21 (stereo unspecified)
inactive: [7] 102 % of control | [8] 96 % of control

CC(=O)OCC1OC(N2C(=O)/C(=C/c3ccc4ccccc4c3)SC2=S)C(OC(C)=O)C(OC(C)=O)C1OC(C)=O (stereo unspecified)
inactive: dose: 25.0 mg/kg/injection, schedule: Q01DX005 (ip), vehicle: other 92 % of control | dose: 50.0 mg/kg/injection, schedule: Q01DX005 (ip), vehicle: other 97 % of control

CN(C)c1ccc2c(c1)C(=P(c1ccccc1)(c1ccccc1)c1ccccc1)c1ccccc1-2
inactive: dose: 63.0 mg/kg/injection, schedule: Q01DX015 (ip), vehicle: carboxymethylcellulose (CMC) 103 % of control | dose: 100.0 mg/kg/injection, schedule: Q01DX001 (ip), vehicle: carboxymethylcellulose (CMC) 97 % of control | dose: 125.0 mg/kg/injection, schedule: Q01DX015 (ip), vehicle: carboxymethylcellulose (CMC) 94 % of control | dose: 200.0 mg/kg/injection, schedule: Q01DX001 (ip), vehicle: carboxymethylcellulose (CMC) 101 % of control | dose: 250.0 mg/kg/injection, schedule: Q01DX015 (ip), vehicle: carboxymethylcellulose (CMC) 100 % of control | dose: 400.0 mg/kg/injection, schedule: Q01DX001 (ip), vehicle: carboxymethylcellulose (CMC) 90 % of control | dose: 500.0 mg/kg/injection, schedule: Q01DX015 (ip), vehicle: carboxymethylcellulose (CMC) 89 % of control

CCOC(=O)/C(O)=C/c1cnc2ccccc2n1
inactive: dose: 50.0 mg/kg/injection, schedule: Q01DX009 (ip), vehicle: Klucel (hydroxypropylcellulose) (HPC) 94 % of control | [9] 91 % of control | [10] 94 % of control

CC(=O)Oc1ccc(CCN=C(c2ccccc2)c2ccccc2)cc1OC(C)=O
inactive: [7] 107 % of control | [8] 104 % of control | dose: 400.0 mg/kg/injection, schedule: Q01DX001 (ip), vehicle: saline 100 % of control

O=C(Nc1ccccc1)Oc1ccc(Cl)cc1Cc1ccccc1
inactive: [11] 87 % of control | [12] 101 % of control

N/C(=N\N=C\c1cccc2ccccc12)N/N=C/c1cccc2ccccc12
inactive: dose: 15.0 mg/kg/injection, schedule: Q01DX Z (ip), vehicle: methylcellulose (MC) 101 % of control | dose: 30.0 mg/kg/injection, schedule: Q01DX Z (ip), vehicle: methylcellulose (MC) 89 % of control | dose: 60.0 mg/kg/injection, schedule: Q01DX Z (ip), vehicle: methylcellulose (MC) 102 % of control | dose: 60.0 mg/kg/injection, schedule: Q01DX Z (oral), vehicle: methylcellulose (MC) 87 % of control | dose: 120.0 mg/kg/injection, schedule: Q01DX Z (ip), vehicle: methylcellulose (MC) 97 % of control | dose: 120.0 mg/kg/injection, schedule: Q01DX Z (oral), vehicle: methylcellulose (MC) 110 % of control | dose: 180.0 mg/kg/injection, schedule: Q01DX Z (oral), vehicle: methylcellulose (MC) 101 % of control | dose: 240.0 mg/kg/injection, schedule: Q01DX Z (ip), vehicle: methylcellulose (MC) 97 % of control | dose: 240.0 mg/kg/injection, schedule: Q01DX Z (oral), vehicle: methylcellulose (MC) 102 % of control | dose: 360.0 mg/kg/injection, schedule: Q01DX Z (ip), vehicle: methylcellulose (MC) 91 % of control | dose: 360.0 mg/kg/injection, schedule: Q01DX Z (oral), vehicle: methylcellulose (MC) 96 % of control | dose: 480.0 mg/kg/injection, schedule: Q01DX Z (oral), vehicle: methylcellulose (MC) 93 % of control | dose: 540.0 mg/kg/injection, schedule: Q01DX Z (oral), vehicle: methylcellulose (MC) 96 % of control

O=[N+]([O-])c1ccc(NC(=S)Nc2cc([N+](=O)[O-])ccc2Cl)cc1
inactive: dose: 50.0 mg/kg/injection, schedule: Q01DX009 (ip), vehicle: saline with Tween-80 98 % of control | [13] 91 % of control | [14] 91 % of control

Cc1ccc(Nc2n[nH]c(=S)s2)cc1C
inactive: [13] 93 % of control | [14] 92 % of control | dose: 400.0 mg/kg/injection, schedule: Q01DX009 (ip), vehicle: saline with Tween-80 106 % of control

CC(O)CSc1ccccc1 (stereo unspecified)
inactive: [13] 95 % of control | [14] 88 % of control

O=C(/C=C/c1ccccc1)N(Cc1ccccc1)c1ccccc1
inactive: [9] 97 % of control | [10] 101 % of control | dose: 400.0 mg/kg/injection, schedule: Q01DX009 (ip), vehicle: Klucel (hydroxypropylcellulose) (HPC) 103 % of control

CC(C)(C)C(=O)N/N=C\c1ccc([N+](=O)[O-])s1
inactive: [1] 93 % of control | [2] 87 % of control | [3] 94 % of control

CCCCCCCCCCCCCCCCCC(=O)N/N=C/c1cc(C(C)(C)C)c(O)c(C(C)(C)C)c1
inactive: dose: 100.0 mg/kg/injection, schedule: Q01DX009 (ip), vehicle: other 90 % of control | dose: 200.0 mg/kg/injection, schedule: Q01DX009 (ip), vehicle: other 88 % of control | dose: 400.0 mg/kg/injection, schedule: Q01DX009 (ip), vehicle: other 96 % of control

COc1cc(C(C)=O)ccc1O
inactive: [11] 99 % of control | [15] 89 % of control | [12] 89 % of control

N#CCCN(CCCN1CCOCC1)C(=S)Nc1ccc(Cl)cc1
inactive: [4] 94 % of control | [5] 90 % of control | [6] 101 % of control

COC1OC2COCOC2C(OC(C)=O)C1OC(C)=O (stereo unspecified)
inactive: dose: 50.0 mg/kg/injection, schedule: Q04DX002 (ip), vehicle: Klucel (hydroxypropylcellulose) (HPC) 104 % of control | [11] 103 % of control and 100 % of control | [15] 95 % of control and 104 % of control and 92 % of control | [12] 103 % of control and 113 % of control

CCC(=O)Nc1cccc(C)c1C
inactive: [9] 93 % of control | dose: 100.0 mg/kg/injection, schedule: Q04DX003 (ip), vehicle: Klucel (hydroxypropylcellulose) (HPC) 102 % of control | [10] 106 % of control | dose: 200.0 mg/kg/injection, schedule: Q04DX003 (ip), vehicle: Klucel (hydroxypropylcellulose) (HPC) 102 % of control | dose: 400.0 mg/kg/injection, schedule: Q04DX003 (ip), vehicle: Klucel (hydroxypropylcellulose) (HPC) 95 % of control

From PubChem BioAssay AID248 (DTP/NCI, 2004)
